Experiments:
[1] = target: T1, RORγ ligand binding domain (LBD) (Homo sapiens, UniProt P51449); assay: TR-FRET Activity Assay (ligand sensing assay, RORγ-LBD / coactivator peptide interaction); assay type: biochemical
T1 construct: made in house; host or cells: E. coli BL-21 (BL3), vector pDEST15
T1 sequence (P51449 269-508 limits assumed): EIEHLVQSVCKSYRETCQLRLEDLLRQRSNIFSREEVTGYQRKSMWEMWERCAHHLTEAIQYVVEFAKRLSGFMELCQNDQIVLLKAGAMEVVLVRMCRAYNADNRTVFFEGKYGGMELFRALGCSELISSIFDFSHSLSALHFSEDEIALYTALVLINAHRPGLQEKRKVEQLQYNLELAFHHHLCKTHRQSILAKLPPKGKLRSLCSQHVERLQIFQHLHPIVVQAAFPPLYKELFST
Description: This method measures the ability of putative ligands to modulate the interaction between the purified bacterial expressed RORγ ligand binding domain (LBD) and synthetic N-terminally biotinylated peptides which are derived from nuclear receptor coactivator proteins such as but not limited to SRC1 (NcoA1), SRC2 (NcoA2, TIF2), SRC3 (NcoA3), PGC1α, PGC1β, CBP, GRIP1, TRAP220, RIP140.
The ligand-binding domain (LBD) of RORγ was expressed as fusion protein with GST in […] cells using the vector pDEST15. Cells were lysed by lysozyme-treatment and sonication, and the fusion proteins purified over glutathione sepharose (Pharmacia) according to the manufacturers instructions. For screening of compounds for their influence on the RORγ-peptide interaction, the LANCE technology (Perkin Elmer) was applied. This method relies on the binding dependent energy transfer from a donor to an acceptor fluorophor attached to the binding partner of interest. For ease of handling and reduction of background from compound fluorescence LANCE technology makes use of generic fluorophore labels and time resolved detection assays were done in a final volume of 25 μL in a 384 well plate, in a Tris-based buffer system (20 mM Tris-HCl pH6.8; 60 mM KCl, 1 mM DTT; 5 mM MgCl2; 35 ng/μL BSA), containing 20-60 ng/well recombinantly expressed RORγ-LBD fused to GST, 200-600 nM N-terminally biotinylated peptide, 200 ng/well Streptavidin-xIAPC conjugate (Prozyme) and 6-10 ng/well Eu W1024-antiGST (Perkin Elmer). DMSO content of the samples was kept at 1%.
After generation of the Tris-based buffer system, the potentially RORγ modulating ligands were diluted. […] The LANCE signal was detected by a Perkin Elmer EnVision™ Multilabel Counter. The results were visualized by plotting the ratio between the emitted light at 665 nm and 615 nm. […] Ligands that promote the complex formation induce a concentration-dependent increase in time-resolved fluorescent signal.
To assess the antagonistic potential of the compounds, IC50 values were determined using a Ligand Sensing Assay based on Time-resolved Fluorescence Energy Transfer (TR-FRET) as described above. The normalised TR-FRET assay values, using the following equation: 1000*665 nm measurement value/615 nm measurement value, were transferred to the program GraphPad Prism to generate graphs and dose response curves using the following equation: […]
This is identical to the “four parameter logistic equation”. The IC50 values are calculated using this equation. […] Is is understood that the data illustrated below may have reasonable variation depending on the specific conditions and procedures used by the person conducting the test.

RORγ = target: T2, RORγ (UniProt P51449); assay type: cell-based; settings: 293T cells, 16 h; for pIC50 (FF): firefly (FF) luciferase; for pIC50 (REN): renilla normalised (RENnorm) luciferase
T2 construct: hRORg-LBD|aa259-518|NP_005051.2; hRORgt|aa1-497|NP_001001523 (RORg, t isoform, 497aa); mRORg-LBD|aa264-516|NP_035411
T2 sequence (P51449 1-518): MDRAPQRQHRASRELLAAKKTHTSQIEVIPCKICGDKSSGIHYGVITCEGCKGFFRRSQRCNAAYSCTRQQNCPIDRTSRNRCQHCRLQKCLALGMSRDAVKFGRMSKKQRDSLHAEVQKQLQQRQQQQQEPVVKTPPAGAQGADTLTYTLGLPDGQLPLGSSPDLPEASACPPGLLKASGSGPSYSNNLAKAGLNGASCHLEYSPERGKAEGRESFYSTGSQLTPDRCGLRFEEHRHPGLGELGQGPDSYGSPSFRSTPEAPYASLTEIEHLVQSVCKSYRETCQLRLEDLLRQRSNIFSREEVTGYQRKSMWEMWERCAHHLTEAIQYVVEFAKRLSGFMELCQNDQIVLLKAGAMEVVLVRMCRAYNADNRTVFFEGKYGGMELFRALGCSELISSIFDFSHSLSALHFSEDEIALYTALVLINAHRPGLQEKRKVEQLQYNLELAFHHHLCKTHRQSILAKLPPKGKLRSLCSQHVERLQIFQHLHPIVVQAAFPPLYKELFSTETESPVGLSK
Description: Determination of a ligand mediated Gal4 promoter driven transactivation to quantify ligand binding to RORγ was performed as follows: DNA encoding three different RORγ. protein fragments was cloned into vector pCMV-BD (Stratagene). Expression was under control of a CMV promoter and as fusion to the DNA-binding domain of the yeast protein GAL4. Other vectors used were pFR-Luc (Stratagene) as regulated reporter plasmid. pFR-Luc contains a synthetic promoter with five tandem repeats of the yeast GAL4 binding sites that control expression of the Photinus pyralis (American firefly) luciferase gene. In order to improve experimental accuracy the plasmid pRL-CMV was cotransfected. pRL-CMV contains the constitutive CMV promoter, controlling the expression of the Renilla reniformis luciferase.
All Gal4 reporter gene assays were done in 293T cells (DSMZ (German Collection of Microorganisms and Cell Cultures), Braunschweig, Germany, ACC635) grown in Minimum Essential Medium (MEM) with Phenol Red. The medium is supplemented with 10% fetal bovine serum, 0.1 mM nonessential amino acids, 1 mM sodium pyruvate, 1% Glutamax and 100 units Penicilin/[…] per mL at 37° C. in 5% CO2.
For the assay, […] were plated per well in 96 well plates in 100 μL per well, incubated over night at 37° C. in 5% CO2. The following day, medium was discarded and the cells were transiently transfected using 20 μL per well of a OptiMEM—PEI-based transfection-reagent (Sigma-Aldrich, 408727) including the three plasmids described above. About 4 h after addition of the transfection solution, fresh Minimal Essential Medium (MEM, same composition as used for plating cells, but without serum) was added. Then compound stocks, prediluted in MEM (same composition as used for plating cells) were added (final vehicle concentration not exceeding 0.1%).
All experiments were done at least in triplicates.
It is understood that the data illustrated below may have reasonable variation depending on the specific conditions and procedures used by the person conducting the test.

## Cc1c(C(=O)NC2CCOCC2)cc(-c2ccc(S(=O)(=O)NC(C)(C)C)c(C(F)(F)F)c2)n1CC1CCOC1 (stereo not drawn) [302/4]
[1]
  IC50: 3980 nM
RORγ
  pIC50 (FF): < 4.7
  pIC50 (REN): < 4.7

## Cc1c(C(=O)NC2CCOCC2)cc(-c2ccc(S(=O)(=O)NC(C)(C)C)c(C(F)(F)F)c2)n1CC1CCCOC1 (stereo not drawn) [302/5]
[1]
  IC50: 794 nM
RORγ
  pIC50 (FF): 6.2
  pIC50 (REN): 6.3

## Cc1c(C(=O)NC2CCOCC2)cc(-c2ccc(S(=O)(=O)NC(C)(C)C)c(C(F)(F)F)c2)n1C1CCCCC1 [302/6]
[1]
  IC50: 1000 nM
RORγ
  pIC50 (FF): 6.5
  pIC50 (REN): 6.7

## CC(C)(C)c1cc(-c2nc(C(N)=O)nn2CC2CCCCC2)cc(C(C)(C)C)c1 [308/1]
[1]
  IC50: 2510 nM
RORγ
  pIC50 (FF): 6.0
  pIC50 (REN): 6.0

## CC(C)(C)c1cc(-c2nc(C(=O)NC3CC3)nn2CC2CCCCC2)cc(C(C)(C)C)c1O [308/2]
[1]
  IC50: 631 nM
RORγ
  pIC50 (FF): 6.2
  pIC50 (REN): 6.3

## CC(C)(C)c1cc(-c2nc(C(=O)NC3COC3)nn2CC2CCCCC2)cc(C(C)(C)C)c1O [308/3]
[1]
  IC50: 794 nM
RORγ
  pIC50 (FF): 6.3
  pIC50 (REN): 6.4

## CC(C)(C)c1cc(-c2nc(C(=O)NC3CCOCC3)nn2CC2CCCCC2)cc(C(C)(C)C)c1O [308/4]
[1]
  IC50: 1000 nM
RORγ
  pIC50 (FF): 6.3
  pIC50 (REN): 6.4

## CC(C)(O)CNC(=O)c1nc(-c2cc(C(C)(C)C)c(O)c(C(C)(C)C)c2)n(CC2CCCCC2)n1 [308/6]
[1]
  IC50: 1000 nM
RORγ
  pIC50 (FF): 6.5
  pIC50 (REN): 6.5

## C[C@@H](O)CNC(=O)c1nc(-c2cc(C(C)(C)C)c(O)c(C(C)(C)C)c2)n(CC2CCCCC2)n1 [308/7]
[1]
  IC50: 2510 nM
RORγ
  pIC50 (FF): 5.7
  pIC50 (REN): 5.9

## C[C@H](O)CNC(=O)c1nc(-c2cc(C(C)(C)C)c(O)c(C(C)(C)C)c2)n(CC2CCCCC2)n1 [308/8]
[1]
  IC50: 1580 nM
RORγ
  pIC50 (FF): 6.2
  pIC50 (REN): 6.3

## CC(C)(C)NS(=O)(=O)c1ccc(-c2nc(C(=O)NC3CCOCC3)nn2CC2CCCCC2)cc1C(C)(C)C [308/9]
[1]
  IC50: 7940 nM
RORγ
  pIC50 (FF): 5.6
  pIC50 (REN): 5.6

## CC(C)(C)NS(=O)(=O)c1ccc(-c2nc(C(=O)N[C@H]3C[C@H](C(=O)O)C3)nn2CC2CCCCC2)cc1C(C)(C)C [308/10]
[1]
  IC50: 6310 nM
RORγ
  pIC50 (FF): < 4.7
  pIC50 (REN): < 4.7

## Cc1cc(-n2nc(C(N)=O)cc2CC2CCCCC2)cc(C(C)(C)C)c1 [312/2]
[1]
  IC50: 7940 nM
RORγ
  pIC50 (FF): < 4.7
  pIC50 (REN): < 4.7

## Cc1c(C(=O)NCC(C)(C)O)cn(-c2cc(C(C)(C)C)cc(C3(C)CC3)c2)c1CC1CCCCC1 [Example 1/1]
[1]
  IC50: 200 nM
RORγ
  pIC50 (FF): 7.4
  pIC50 (REN): 7.5

## Cc1c(C(=O)NC2CCOCC2)cn(-c2cc(Br)cc(C(C)(C)C)c2)c1C=C1CCCCC1 [Example 2, 1-(3-Bromo-5-(tert-butyl)phenyl)-5-(cyclohexylidenemethyl)-4-methyl-N-(tetrahydro-2H-pyran-4-yl)-1H-pyrrole-3-carboxamide]
[1]
  IC50: 1260 nM
RORγ
  pIC50 (FF): 6.4
  pIC50 (REN): 6.5

## Cc1c(C(=O)NCCC(C)(C)C(=O)O)cn(-c2ccc(S(=O)(=O)NC(C)(C)C)c(C(F)(F)F)c2)c1CC1CCCCC1 [Example 4, 4-(1-(4-(N-(tert-Butyl)sulfamoyl)-3-(trifluoromethyl)phenyl)-5-(cyclohexylmethyl)-4-methyl-1H-pyrrole-3-carboxamido)-2,2-dimethylbutanoic acid]
[1]
  IC50: 501 nM
RORγ
  pIC50 (FF): 7.7
  pIC50 (REN): 7.7

## Cc1c(C(=O)N[C@H]2C[C@H](C(=O)O)C2)cn(-c2ccc(S(=O)(=O)NC(C)(C)C)c(C(C)(C)C)c2)c1CC1CCCCC1 [Example 4/1]
[1]
  IC50: 1260 nM
RORγ
  pIC50 (FF): 7.2
  pIC50 (REN): 7.3
